{
  "source": "patent EP0168881B1",
  "about": "“Oxa-fenchyl esters and amides of alpha-l-aspartyl-d-phenylglycine” (THE PROCTER & GAMBLE COMPANY, priority 1984, dated 1986)",
  "key": {"[1]": {"conditions": "cited from earlier work; for sweetness intensity: background art values; for taste: taste in words, background art"}, "[2]": {"assay": "Sweetness intensity relative to sucrose, taste panel", "type": "in vivo, Male subjects", "conditions": "based on informal panel testing", "text": "The sweetness intensity of the esters and amides of the present invention relative to sucrose can be determined according to the following procedure:\nMale subjects are chosen at random from a group of about 20 persons who have previously been selected on the basis of proven tasting acuity, i.e., persons who could.easily recognize the four basic tastes (sweet, sour, bitter and salty) and who are adept at quantifying their own physiological response numerically. The subjects are asked to taste and expectorate about 10 ml of a test sample (temperature of about 22°C) having dissolved therein the ester of amide. […] Sweetness intensity of the test sample is recorded by the subject making a mark on the linear scale at a point they consider equal in sweetness among the standard samples; interpolation between standards is encouraged. After completion of the panel, a five point numeric scale is superimposed on the linear scales to obtain numerical data; data is averaged and recorded to.the nearest 0.25 unit..Equivalent sucrose sweetness is determined by referring to graphs of (w/v) sucrose concentration in the standard samples versus a linear numeric scale.\nSweetness intensity is calculated by dividing the concentration (w/v) of perceived sweetness by the concentration (w/v) of the ester or amide required to produce that sweetness. […]"}, "[3]": {"conditions": "carbonated beverages; background statement; cited from earlier work"}},
  "note": "Where two headings read alike, the source gives them in different places. Non-standard residues stand in square brackets, D forms with d. Residues, ends and D or L forms follow the SMILES beside them. Phg = N[C@H](C(=O)O)c1ccccc1",
  "data": [
    {"smiles": "C[C@@H](NC(=O)[C@@H](N)CC(=O)O)C(=O)NC1C(C)(C)S(=O)(=O)C1(C)C", "values": [
      {"measurement": "sweetness intensity", "setting": "[1]", "result": "1000 times that of sucrose"}
    ]},
    {"smiles": "CC12CCC(O1)C(C)(C)C2OC(=O)C(NC(=O)C(N)CC(=O)O)c1ccccc1", "note": "(single isomer, unassigned) [Example 2, alpha-L-Aspartyl-D-phenylglycine-alpha-7-oxa-fenchyl ester]", "values": [
      {"measurement": "sweetness intensity", "setting": "[2]", "result": "approximately 1000 X"}
    ]},
    {"smiles": "C[C@@H](NC(=O)[C@@H](N)CC(=O)O)C(=O)NC1C(C)(C)SC1(C)C", "note": "[2,2,4,4-tetramethylthietan-3-yl]", "values": [
      {"measurement": "sweetness intensity", "setting": "[1]", "result": "2000 times that of sucrose"}
    ]},
    {"smiles": "CC1CCC(C)C1NC(=O)[C@@H](C)NC(=O)[C@@H](N)CC(=O)O", "note": "(stereo partly drawn) [2,5-dimethylcyclopentyl]", "values": [
      {"measurement": "sweetness intensity", "setting": "[1]", "result": "520 times that of sucrose"}
    ]},
    {"smiles": "CC1CCCC(C)C1NC(=O)[C@@H](C)NC(=O)[C@@H](N)CC(=O)O", "note": "(stereo partly drawn) [2,6-dimethylcyclohexyl]", "values": [
      {"measurement": "sweetness intensity", "setting": "[1]", "result": "600 times that of sucrose"}
    ]},
    {"smiles": "O=C1NS(=O)(=O)c2ccccc21", "note": "[Saccharin]", "values": [
      {"measurement": "sweetness intensity", "setting": "[1]", "result": "about 300 times that of sucrose"},
      {"measurement": "taste", "setting": "[1]", "result": "undesirable lingering bitter aftertaste"}
    ]},
    {"smiles": "COC(=O)[C@H](Cc1ccccc1)NC(=O)[C@@H](N)CC(=O)O", "note": "[aspartame, a/pha-L-aspartyl-L-phenylalanine lower alkyl esters, in particular the methyl ester known as aspartame] (H-Asp-Phe-OMe)", "values": [
      {"measurement": "hydrolytic stability", "setting": "[3]", "result": "hydrolytically unstable in most carbonated beverages"},
      {"measurement": "sweetness intensity", "setting": "[1]", "result": "150-200 times that of sucrose"}
    ]},
    {"smiles": "C[C@@H](NC(=O)[C@@H](N)CC(=O)O)C(=O)NC(C1CC1)C1CC1", "note": "[dicyclopropylcarbinyl]", "values": [
      {"measurement": "sweetness intensity", "setting": "[1]", "result": "1200 times that of sucrose"}
    ]},
    {"smiles": "C[C@@H](NC(=O)[C@@H](N)CC(=O)O)C(=O)NC1C2(C)CCC(C2)C1(C)C", "note": "(stereo partly drawn) [fenchyl]", "values": [
      {"measurement": "sweetness intensity", "setting": "[1]", "result": "320 times that of sucrose"}
    ]},
    {"smiles": "COC(=O)[C@@H](Cc1ccccc1)NC(=O)[C@@H](N)CC(=O)O", "note": "[methyl ester of L-aspartyl-D-phenylalanine] (H-Asp-[dF]-OMe)", "values": [
      {"measurement": "taste", "setting": "[1]", "result": "bitter"}
    ]},
    {"smiles": "COC(=O)[C@@H](NC(=O)[C@@H](N)CC(=O)O)c1ccccc1", "note": "[methyl ester of L-aspartyl-L-phenylglycine] (H-Asp-[Phg]-OMe)", "values": [
      {"measurement": "sweetness intensity", "setting": "[1]", "result": "100-1000 times that of sucrose"},
      {"measurement": "taste", "setting": "[1]", "result": "quite sweet"}
    ]},
    {"smiles": "COC(=O)C(NC(=O)[C@@H](N)CC(=O)O)C(=O)OC1C2(C)CCC(C2)C1(C)C", "note": "(stereo partly drawn) [methyl]", "values": [
      {"measurement": "sweetness intensity", "setting": "[1]; listed as R^1a is methyl ester group, R^2a is fenchyl group", "result": "22,200-33,200 times that of sucrose"}
    ]}
  ]
}
